Source: patent publication US11881286B2, “CD8+ t cell based immunosuppressive tumor microenvironment detection method” (GENENTECH, INC., priority 2019, dated 2024)

What was measured:
SMAD2/3 = experiment: p-SMAD2/3 Western blot assay in PHBF fibroblasts; type: cell-based, human; settings: 30 min
Experimental: PHBF cells were plated at 100,000 cells/well in a 24-well cell culture plate overnight, serum starved for 24 h and then cultured in serum-free DMEM with indicated concentration of […] with or without Galunisertib for 30 min. Cells were lysed in protein lysis buffer containing T-PER tissue protein extraction reagent (ThermoFisher, #78510), cOmplete™ Protease Inhibitor Cocktail (Sigma-Aldrich, #11697498001) and PhosSTOP™ phosphatase inhibitor cocktails (Sigma-Aldrich, #4906845001). Total protein was diluted and normalized to 0.5 μg/μL with 4×LDS Sample Buffer (ThermoFisher, #84788). 10 ug of total protein was loaded into each well of a NuPAGE 4-12% Bis-Tris Midi Gel (Invitrogen), followed by protein transfer from gel to the membrane using Trans-Blot Turbo (Bio-Rad). […] Briefly, the membrane was blocked for 1 h, incubated with Phospho-Smad2 antibodies overnight at 4° C. ([…], 1:200, Cell Signaling #3108, clone138D4), washed and incubated with secondary antibodies goat anti-rabbit. To analyse the total Smad2/3, the membrane was stripped and then incubated with Smad2/3 antibodies (1:1000, Cell Signaling #8685).

IL-6 = IL-6 protein in fibroblast supernatant by Luminex; type: cell-based, human; settings: rhTGFβ1, 48 h
Experimental: (§1) The primary normal fibroblast PHBF (Bladder), CCD-18Co (Colon) and HOF (Ovary) were serum-starved overnight before treatment with media only (untreated), 10 ng/mL rhTGFβ1 or 10 ng/mL rhTGFβ1+10 μM Galunisertib for 24 hours and total RNA was extracted for RNA-seq analysis. To detect IL-6 protein in the supernatant, cells were treated for 48 hours with rhTGFβ1. After the 48 h, the supernatant was collected and analysed by Luminex using the Millipore kit. For the proliferation assay, PHBF, CCD-18Co, HOF were plated at 3,000 cells/well in a 96-well culture flat bottom plate for immunofluorescent assays (Corning, #3917) overnight. Cells were then cultured for 72 hours in DMEM high glucose+1% FBS with indicated concentration of TGFβ1 with or without Galunisertib. Next, CellTiter-Glo® reagents (Promega, G7570) were added to each well and luminescence signal was read with a microplate reader.

[1] = system: primary human fibroblasts; experiment: RNA-seq transcriptional response of primary human fibroblasts; type: cell-based; settings: 10 ng/mL rhTGFβ1, 24 h
Experimental: as §1

OVCA-420 = experiment: Surface MHC-I (HLA-ABC) expression by flow cytometry, OVCA-420; type: cell-based, human
Experimental: SK-OV-3 and OVCA-420 (MHC-I^high), and OAW42 and PA-1 (MHC-I^low) ovarian cancer lines were cultured in complete culture media (RPMI-1640+10% FBS). The cells were plated at 12,500-100,000 cells/well in 6-well tissue culture plate and complete culture media. After 24 hours, the cells were starved overnight in DMEM high glucose medium without FBS. Next, the starving media was replaced with culture media only (DMEM+2% FBS), 10 ng/mL rhTGFβ1 (Cat #PHG9204, Thermo Fisher, CA), 10 ng/mL rhTGFβ1+10 μM Galunisertib (Cat #S2230, SelleckChem, TX) or 5 ng/mL recombinant IFNγ (Cat #554617, BD Biosciences, CA) for 96 h at 37° C. Cells were then stained and analysed by flow cytometry. The “percentage of untreated” was calculated using this formula: [Geo Mean Fluorescence Intensity (IFNγ-treated cells)/Geo Mean Fluorescence Intensity (untreated cells)]×100. In order to see if MHC-I expression can be regulated by methylation, two MHC-I^low lines OAW42 and PA-1 were plated at 250,000-500,000 cells/dish in 10-cm dish and serum starved as described above for TGFβ1 treatment. 10 μM and 1 μM 5-Aza-2′-deoxycytidine (5-Aza, Cat #A2385, Sigma-Aldrich) demethylating agent in culture media was used to treat OAW42 and PA-1, respectively, for 96 h prior to FACS analysis. Media was half-replenished with fresh 5-Aza 48 hours after treatment to keep concentration consistent.
Before staining, Fc receptors were blocked for 10 min at room temperature using FcR blocking reagent human (Cat #130-059-901, Miltenyi Biotec, CA). Cells were stained during the blocking step with the LIVE/DEAD™ Fixable Near-IR Dead Cell (Cat #L10119, Invitrogen, CA). Then, cells were incubated at room temperature for 15 min with anti-human HLA-ABC-PE (Cat #560168, BD Biosciences, CA) or isotype control mouse IgG1κ-PE (Cat #556650, BD Biosciences) antibodies, washed and samples were acquired on BD LSRFortessa™ flow cytometer.

[2] = system: primary human fibroblasts; experiment: Proliferation assay (CellTiter-Glo) of primary human fibroblasts; type: cell-based; settings: ovary, bladder and colon fibroblasts, 72 h
Experimental: as §1

SK-OV-3 = experiment: Surface MHC-I (HLA-ABC) expression by flow cytometry, SK-OV-3; type: cell-based, human; settings: 96 h
Experimental: SK-OV-3 and OVCA-420 (MHC-I^high), and OAW42 and PA-1 (MHC-I^low) ovarian cancer lines were cultured in complete culture media (RPMI-1640+10% FBS). The cells were plated at 12,500-100,000 cells/well in 6-well tissue culture plate and complete culture media. After 24 hours, the cells were starved overnight in DMEM high glucose medium without FBS. Next, the starving media was replaced with culture media only (DMEM+2% FBS), 10 ng/mL rhTGFβ1 (Cat #PHG9204, Thermo Fisher, CA), 10 ng/mL rhTGFβ1+10 μM Galunisertib (Cat #S2230, SelleckChem, TX) or 5 ng/mL recombinant IFNγ (Cat #554617, BD Biosciences, CA) for 96 h at 37° C. Cells were then stained and analysed by flow cytometry. The “percentage of untreated” was calculated using this formula: [Geo Mean Fluorescence Intensity (IFNγ-treated cells)/Geo Mean Fluorescence Intensity (untreated cells)]×100. In order to see if MHC-I expression can be regulated by methylation, two MHC-I^low lines OAW42 and PA-1 were plated at 250,000-500,000 cells/dish in 10-cm dish and serum starved as described above for TGFβ1 treatment. 10 μM and 1 μM 5-Aza-2′-deoxycytidine (5-Aza, Cat #A2385, Sigma-Aldrich) demethylating agent in culture media was used to treat OAW42 and PA-1, respectively, for 96 h prior to FACS analysis. Media was half-replenished with fresh 5-Aza 48 hours after treatment to keep concentration consistent. […]

PA-1 = experiment: Surface MHC-I (HLA-ABC) expression by flow cytometry, PA-1; type: cell-based, human; settings: 96 h
Experimental: (§2) SK-OV-3 and OVCA-420 (MHC-I^high), and OAW42 and PA-1 (MHC-I^low) ovarian cancer lines were cultured in complete culture media (RPMI-1640+10% FBS). The cells were plated at 12,500-100,000 cells/well in 6-well tissue culture plate and complete culture media. After 24 hours, the cells were starved overnight in DMEM high glucose medium without FBS. Next, the starving media was replaced with culture media only (DMEM+2% FBS), 10 ng/mL rhTGFβ1 (Cat #PHG9204, Thermo Fisher, CA), 10 ng/mL rhTGFβ1+10 μM Galunisertib (Cat #S2230, SelleckChem, TX) or 5 ng/mL recombinant IFNγ (Cat #554617, BD Biosciences, CA) for 96 h at 37° C. Cells were then stained and analysed by flow cytometry. The “percentage of untreated” was calculated using this formula: [Geo Mean Fluorescence Intensity (IFNγ-treated cells)/Geo Mean Fluorescence Intensity (untreated cells)]×100. […] Media was half-replenished with fresh 5-Aza 48 hours after treatment to keep concentration consistent. Before staining, Fc receptors were blocked for 10 min at room temperature using FcR blocking reagent human (Cat #130-059-901, Miltenyi Biotec, CA). Cells were stained during the blocking step with the LIVE/DEAD™ Fixable Near-IR Dead Cell (Cat #L10119, Invitrogen, CA). […]

OAW42 = experiment: Surface MHC-I (HLA-ABC) expression by flow cytometry, OAW42; type: cell-based, human; settings: 96 h
Experimental: as §2

## TGFβ1: recombinant human TGFβ1 (rhTGFβ1, Cat #PHG9204, Thermo Fisher)
SMAD2/3; TGFβ dose-dependent
  phosphorylation level of SMAD2/3: increased
IL-6
  IL-6 protein secretion level in the supernatant: dramatically increased
[1]
  expression of immune-modulatory molecules (IL11, TNFAIP6) in fibroblast cells: specifically induced
  mRNA expression of IL6 in human fibroblasts: specifically induced
[1]; ovary, bladder, colon fibroblasts
  transcriptional program induced in human primary fibroblasts (ECM-related genes, reactive stroma markers): common 77-gene transcriptional program specifically induced
OVCA-420; OVCA-420, 10 ng/mL rhTGFβ1, 96 h, flow cytometry
  decrease of surface expression of MHC-I compared to the untreated cells: 40.45±14.2%
[2]
  proliferation of primary human fibroblasts: promoted proliferation

## Cc1cccc(-c2nn3c(c2-c2ccnc4ccc(C(N)=O)cc24)CCC3)n1 [Galunisertib]
SMAD2/3; TGFβ1 with Galunisertib
  TGFβ pathway (SMAD2/3 phosphorylation) with Galunisertib treatment: pathway inhibition
OVCA-420; OVCA-420, 10 ng/mL rhTGFβ1+10 μM Galunisertib, 96 h
  MHC class I expression in the presence of Galunisertib: restored to the untreated level
SK-OV-3; SK-OV-3, 10 ng/mL rhTGFβ1+10 μM Galunisertib
  MHC class I expression in the presence of Galunisertib: restored to the untreated level

## Nc1ncn([C@H]2C[C@H](O)[C@@H](CO)O2)c(=O)n1 [5-aza-2′-deoxycytidine]
PA-1; PA-1, 1 μM 5-Aza, vs DMSO
  expression of MHC class I protein at the tumor cell surface: significantly induce
OAW42; OAW42, 10 μM 5-Aza, vs DMSO
  expression of MHC class I protein at the tumor cell surface: significantly induce

B1: IFNγ: recombinant IFNγ, a cytokine well established for inducing MHC-I expression (protein, UniProt P01579 24-161, looked up)
Interferon gamma: QDPYVKEAENLKKYFNAGHSDVADNGTLFLGILKNWKEESDRKIMQSQIVSFYFKLFKNFKDDQSIQKSVETIKEDMNVKFFNSNKKKRDDFEKLTNYSVTDLNVQRKAIHELIQVMAELSPAAKTGKRKRSQMLFRG
OVCA-420; OVCA-420 (MHC-I high), 5 ng/mL IFNγ, 96 h
  MHC class I protein expression on the tumor cell surface: increased
SK-OV-3; SK-OV-3 (MHC-I high), 5 ng/mL IFNγ
  MHC class I protein expression on the tumor cell surface: increased
PA-1; PA-1 (MHC-I low), 5 ng/mL IFNγ
  MHC class I protein expression on the tumor cell surface: increased
OAW42; OAW42 (MHC-I low), 5 ng/mL IFNγ
  MHC class I protein expression on the tumor cell surface: increased
